From patent publication US20240115521A1, “COMPOUNDS FOR THE TREATMENT OF MYCOBACTERIAL DISEASES” (priority 2022, published 2024)

Columns and labels:
intracellular BCG = assay: microbe, parasite or virus in culture; type: cell-based; conditions: Mycobacterium tuberculosis variant bovis BCG, read-out: Activity on intracellular BCG (% inhibition)
intracellular Mtb = assay: Inhibition of Mtb growth inside primary human monocytes (3H-Uridine); type: cell-based; conditions: Mycobacterium tuberculosis, Monocyte, all drugs tested at 20 μM
Method: FIGS. 1A & 1B show the structure and anti-mycobacterial activity of select troponoids. Shown are the structures (FIG. 1A) and calculated percent inhibitions of M. tuberculosis (Mtb) growth inside primary human monocytes by 4 selected troponoids (FIG. 1B).
Numerous troponoids have been synthesized and screened on Mtb and MAC and identified three with activities at a concentration of ≤5 μM. […] Briefly, primary monocytes were infected with mycobacteria (Mtb) for 4 hours, then co-cultured with indicated troponoids (2.5-20 μM) for 3 days. Then mammalian cells were lysed with saponin and residual mycobacteria quantified via ^3H-Uridine as previously described (Abate et al. 2015).

[1] = Mouse liver microsome stability; type: in vitro ADME; conditions: result in words
Source text: (§1) Because the murine model will be used for initial drug efficacy studies and our goal is to develop drugs for human use, in vitro liver microsomal studies we performed using both mouse and human liver microsomes.

[2] = Caco2 in vitro permeability assay; conditions: human, Caco-2
Caco2 = Caco2 in vitro permeability assay; conditions: for Caco2 PappA > B: apical to basolateral; for Caco2 PappB > A: basolateral to apical; for GI absorption by Caco-2 in vitro testing: result in words
[3] = Human liver microsome assay; type: in vitro ADME; conditions: for half-life: human liver microsomes; for Stability in human liver microsomal studies: result in words
Source text: as §1

CCCCSc1cccc(O)c(=O)c1O [#693]
inhibition at 20 µM (intracellular BCG): 89.2%

CCCCSc1ccc(SCCCC)c(O)c(=O)c1O [#694]
inhibition at 20 µM (intracellular Mtb): 86.5%
Stability in mice liver microsomal studies [1]: stable
inhibition at 20 µM (intracellular BCG): 91.8%
efflux ratio [2]: 19
Caco2 PappA > B (Caco2): 5.83E−06 sec*cm^2
Caco2 PappB > A (Caco2): 1.11E−04 sec*cm^2
GI absorption by Caco-2 in vitro testing (Caco2): good GI absorption
half-life [3]: 9.8 min
Stability in human liver microsomal studies [3]: stable

Cc1ccc(S(=O)(=O)c2cccc(O)c(=O)c2O)cc1 [#697]
inhibition at 20 µM (intracellular BCG): 0%

CCCCCCS(=O)(=O)c1cccc(O)c(=O)c1O [#699]
inhibition at 20 µM (intracellular BCG): 0%

O=c1c(O)cccc(S)c1O [#701]
inhibition at 20 µM (intracellular BCG): 38.8%

Cc1cc(O)c(=O)c(O)cc1C(=O)N1CCSC1 [#712]
inhibition at 20 µM (intracellular BCG): 32.1%

COc1ccc(-c2ccccc(N)c2=O)cc1 [#762]
inhibition at 20 µM (intracellular BCG): 10.8%

CCn1cc(C(=O)O)c(=O)c2cc(F)c(N3CCN(c4cccccc4=O)CC3)cc21 [#764]
inhibition at 20 µM (intracellular BCG): 14.5%

O=c1cccccc1N1CCOCC1 [#765]
inhibition at 20 µM (intracellular BCG): 24.3%

O=c1cccccc1N1CCCC1 [#766]
inhibition at 20 µM (intracellular BCG): 14%

CCS(=O)(=O)N1CCN(C(=O)c2cc(O)c(=O)c(O)cc2C)CC1 [#802]
inhibition at 20 µM (intracellular BCG): 0%

Cc1ccc(Sc2cccc(O)c(=O)c2O)cc1 [#838]
inhibition at 20 µM (intracellular BCG): 29.3%

CCCCCCSc1cccc(O)c(=O)c1O [#840]
inhibition at 20 µM (intracellular Mtb): 89.4%
Stability in mice liver microsomal studies [1]: stable
inhibition at 20 µM (intracellular BCG): 74.7%
efflux ratio [2]: 14.6
Caco2 PappA > B (Caco2): 1.45E−05 sec*cm^2
Caco2 PappB > A (Caco2): 2.11E−04 sec*cm^2
GI absorption by Caco-2 in vitro testing (Caco2): good GI absorption
half-life [3]: > 30 min
Stability in human liver microsomal studies [3]: stable

CCCCCCSc1ccc(SCCCCCC)c(O)c(=O)c1O [#841]
inhibition at 20 µM (intracellular Mtb): 91.5%
Stability in mice liver microsomal studies [1]: stable
inhibition at 20 µM (intracellular BCG): 83.5%
efflux ratio [2]: 1.7
Caco2 PappA > B (Caco2): 3.08E−06 sec*cm^2
Caco2 PappB > A (Caco2): 5.18E−06 sec*cm^2
GI absorption by Caco-2 in vitro testing (Caco2): good GI absorption
half-life [3]: 7 min
Stability in human liver microsomal studies [3]: stable

COc1cc(-c2ccccc(S)c2=O)cc(OC)c1OC [#842]
inhibition at 20 µM (intracellular BCG): 25%

COc1cc(-c2ccccc(SSc3ccccc(-c4cc(OC)c(OC)c(OC)c4)c3=O)c2=O)cc(OC)c1OC [#843]
inhibition at 20 µM (intracellular BCG): 26.5%

O=c1c(S)ccccc1-c1ccccc1 [#844]
inhibition at 20 µM (intracellular BCG): 19.1%

O=C1Nc2ccccc2CCC1S (stereo not shown) [#845]
inhibition at 20 µM (intracellular BCG): 9%

O=C1Nc2ccccc2CCC1SC1CCc2ccccc2NC1=O (stereo not shown) [#846]
inhibition at 20 µM (intracellular BCG): 0%

Cc1ccc(C(=O)Oc2cc(C(C)C)cccc2=O)cc1 [#847]
inhibition at 20 µM (intracellular BCG): 28.8%

O=C(O)COc1cc(O)c2c(=O)cc(-c3ccccc3)oc2c1 [#859]
inhibition at 20 µM (intracellular BCG): 11.3%

COc1ccc(-c2cc(=O)c3c(O)cc(O)cc3o2)cc1 [#861]
inhibition at 20 µM (intracellular BCG): 0%

CC(C)c1nc(CN(C)C(=O)N[C@H](C(=O)N[C@@H](Cc2ccccc2)C[C@H](O)[C@H](Cc2ccccc2)NC(=O)OCc2cncs2)C(C)C)cs1 [Ritonavir, reference compound]
half-life [3]: < 5 min

CC(=O)CC(c1ccccc1)c1c(O)c2ccccc2oc1=O (stereo not shown) [Warfarin, reference compound]
Caco2 PappA > B (Caco2): 9.37E−05 sec*cm^2
Caco2 PappB > A (Caco2): 2.70E−04 sec*cm^2
